Test results as given in ChEMBL document CHEMBL1121846, “Synthesis and pharmacological evaluation of sulfonium analogues of dopamine: nonclassical dopamine agonists” (J Med Chem, 1981).

Legend:
Rattus norvegicus [1] = species on record: Rattus norvegicus; settings: Striatum, 1 uM
Rattus norvegicus [2] = species on record: Rattus norvegicus; test: Contralateral rotation produced by intrastriatal injection in rats with unilateral 6-hydroxydopamine-induced lesions of the substantia nigra at 10 nmol; turns/5 min; assay type: functional
Rattus norvegicus [3] = species on record: Rattus norvegicus; test: Compound concentration required to reduce specific binding of tritiated dopamine to rat brain striatal membrane by 50 % was reported
Rattus norvegicus [4] = species on record: Rattus norvegicus; test: Contralateral rotation produced by intrastriatal injection in rats with unilateral 6-hydroxydopamine-induced lesions of the substantia nigra at 2 microL; turns/5 min; assay type: functional
Rattus norvegicus [5] = species on record: Rattus norvegicus; test: Contralateral rotation produced by intrastriatal injection in rats with unilateral 6-hydroxydopamine-induced lesions of the substantia nigra at 90 nmol; turns/5 min; assay type: functional
Rattus norvegicus [6] = species on record: Rattus norvegicus; test: Compound concentration required to reduce specific binding of tritiated dopamine to rat brain striatal membrane
Rattus norvegicus [7] = species on record: Rattus norvegicus; test: Maximal degree of inhibition was determined from displacement of [3H]dopamine binding to rat brain striatal membrane; assay type: functional
Rattus norvegicus [8] = species on record: Rattus norvegicus; test: Contralateral rotation produced by intrastriatal injection in rats with unilateral 6-hydroxydopamine-induced lesions of the substantia nigra at 30 nmol; turns/5 min; assay type: functional
Rattus norvegicus [9] = species on record: Rattus norvegicus; test: Contralateral rotation produced by intrastriatal injection in rats with unilateral 6-hydroxydopamine-induced lesions of the substantia nigra at 10 nmol; assay type: functional
Rattus norvegicus [10] = species on record: Rattus norvegicus; test: Maximal degree of inhibition at 3-30 uM concentration was determined from displacement of [3H]-dopamine binding to rat brain striatal membrane; assay type: functional

| IC50 (Rattus norvegicus [6]) [nM] | inhibition (Rattus norvegicus [7]) [%] | Compound | Rate of rotation (Rattus norvegicus [2]) | Rate of rotation (Rattus norvegicus [5]) | Rate of rotation (Rattus norvegicus [8]) | also measured |
| --- | --- | --- | --- | --- | --- | --- |
|  |  | NCCc1ccc(O)c(O)c1 [DOPAMINE] | 39.75 |  |  | Total binding (Rattus norvegicus [1]): 72%; IC50 (Rattus norvegicus [3]): 29 nM |
|  |  | O=C1O[C@H]([C@@H](O)CO)C(O)=C1O [ASCORBIC ACID] |  |  |  | Rate of rotation (Rattus norvegicus [4]): 4.5 |
| 370 | 29 | C[S+](C)CC(=O)c1ccc(O)c(O)c1.[I-] |  | 38.83 | 25.33 | Rate of rotation (Rattus norvegicus [9]): 8.4 turns 5min-1 |
| 440 | 19 | C[S+](C)CCc1ccc(O)c(O)c1.[I-] | 11.25 | 31.5 | 20.75 |  |
|  |  | C[S+](C)C |  |  |  | inhibition (Rattus norvegicus [10]): 9% |
